Test results as given in patent US20190111059A1, “COMPOSITIONS AND METHODS FOR TREATING AUTISM SPECTRUM DISORDER” (Marinus Pharmaceuticals, Inc., priority 2017, published 2019).
Structures can show the parent of a compound that is named as a salt.

Assays:
Format in all cases: in vivo, human
[1] = tested on: children with ASD who were positive for at least one FRAA; assay: Controlled open-label study of high-dose folinic acid (Example 1); settings: 2 mg kg^−1 per day in two divided doses, maximum 50 mg per day
[2] = tested on: children with non-syndromic autism spectrum disorder (ASD) and language impairment; assay: Randomized placebo-controlled trial: Vineland Adaptive Behavior Scale (VABS); settings: higher = better; for VABS Daily living, estimated effect: calcium salt
Description: The Vineland Adaptive Behavior Scale 2nd Edition (“VABS”) is a reliable and valid measure of the ability to perform age-appropriate everyday skills though a 20-30 min structured interview with a caretaker. Standard scores from the communication, daily living, social and motor skills, and adaptive behavioral composite were analyzed. Standard scores have a mean of 100, standard deviation of 15 and range 20-160. […] This two-arm double-blind randomized placebo-controlled parallel study with a 1:1 allocation was performed at Arkansas Children's Research Institute (Little Rock, Ark., USA) from 4 Jun. 2012 to 22 Nov. 2013. Those confirmed to have language impairment were randomized to the folinic acid or placebo group and a fasting blood sample was obtained. Randomization was performed using a random number generator with a block size of four. The research pharmacists had exclusive access to the randomization allocation. After breakfast, the participants returned for language, developmental and behavioral assessments. Following these assessments the family was given the 12 weeks of the intervention and was instructed on its administration. Language, developmental and behavioral assessments were repeated after 12 weeks of treatment. The target dose of the intervention (INN: DL folinic acid calcium salt; USAN: leucovorin calcium) was 2 mg kg^−1 per day (maximum 50 mg per day) in two equally divided doses with half of the target dose given during the first 2 weeks. Dye-free, milk-product-free, vegetarian capsules were provided in three strengths (5, 10 and 25 mg) by Lee Silsby Compounding Pharmacy (Cleveland Heights, Ohio, USA). Certificate of analysis was provided for each capsule strength by an independent analytical service (Eagle Analytical Services, Houston, Tex., USA) for each batch of capsules produced. In all cases, potency was at least 99%. Secondary outcomes. Secondary outcome measures included the Ohio Autism Clinical Impression Scale (OACIS), Vineland Adaptive Behavior Scale 2nd Edition (VABS) Survey Interview Form and several questionnaires. Parents and teachers were asked to complete the Aberrant Behavior Checklist (ABC), Social Responsiveness Scale (SRS) and Behavioral Assessment System for Children 2nd Edition (BASC). Only parents were asked to complete the Autism Impact Measure (AIM) and Autism Symptoms Questionnaire (ASQ). Secondary outcome measures were analyzed using the mixed-model regression. Because of the large number of secondary outcomes, correction for multiple comparisons was conducted using the false discovery rate.

[3] = tested on: children with non-syndromic autism spectrum disorder (ASD) and language impairment; assay: Randomized placebo-controlled trial: Behavioral Assessment System for Children (BASC); settings: for BASC Internalizing problems, estimated effect: calcium salt
Description: The Behavioral Assessment System for Children 2nd Edition (“BASC”) ranges from 185 to 306 items and is validated in ASD. Each item is rated 0 to 3 with higher scores indicating greater severity. Standardized T-Scores (mean 50, standard deviation 10) range 20-120 for externalizing, internalizing and behavioral symptoms and 10-90 for adaptive skills. This two-arm double-blind randomized placebo-controlled parallel study with a 1:1 allocation was performed at Arkansas Children's Research Institute (Little Rock, Ark., USA) from 4 Jun. 2012 to 22 Nov. 2013. Parent and teacher questionnaires were requested at baseline and 6 and 12 weeks after starting treatment. Parents were asked to deliver baseline questionnaires to teachers or therapists. After the first visit, questionnaires were mailed to the parents and teachers at least 1 week prior to the target date of completion. Parents were asked to bring the completed teacher and parent 12-week questionnaires to the final assessment. Other questionnaires were returned in a preaddressed postage-paid envelope. The target dose of the intervention (INN: DL folinic acid calcium salt; USAN: leucovorin calcium) was 2 mg kg^−1 per day (maximum 50 mg per day) in two equally divided doses with half of the target dose given during the first 2 weeks. Dye-free, milk-product-free, vegetarian capsules were provided in three strengths (5, 10 and 25 mg) by Lee Silsby Compounding Pharmacy (Cleveland Heights, Ohio, USA). Certificate of analysis was provided for each capsule strength by an independent analytical service (Eagle Analytical Services, Houston, Tex., USA) for each batch of capsules produced. In all cases, potency was at least 99%. Secondary outcomes. Secondary outcome measures included the Ohio Autism Clinical Impression Scale (OACIS), Vineland Adaptive Behavior Scale 2nd Edition (VABS) Survey Interview Form and several questionnaires. Parents and teachers were asked to complete the Aberrant Behavior Checklist (ABC), Social Responsiveness Scale (SRS) and Behavioral Assessment System for Children 2nd Edition (BASC). Only parents were asked to complete the Autism Impact Measure (AIM) and Autism Symptoms Questionnaire (ASQ). Secondary outcome measures were analyzed using the mixed-model regression. Because of the large number of secondary outcomes, correction for multiple comparisons was conducted using the false discovery rate.

[4] = vs placebo, mixed-model regression
[5] = vs placebo, mixed-model regression, lower = better

Nc1nc2c(c(=O)[nH]1)N(C=O)C(CNc1ccc(C(=O)N[C@@H](CCC(=O)O)C(=O)O)cc1)CN2 (mixture of isomers) [Folinic acid, DL folinic acid calcium salt]
Adverse effects [1]: very few adverse effects reported
Improvements in verbal communication, receptive and expressive language, attention, and stereotypical behavior [1]: significant improvements
VABS Social skills, 12-week assessment mean ([2]; 2 mg kg^−1 per day, 12 weeks, baseline 64.4): 68.3 Standard Score
VABS Daily living, 12-week assessment mean ([2]; 2 mg kg^−1 per day, 12 weeks, baseline 64.6): 69.2 Standard Score
VABS Adaptive behavior, 12-week assessment mean ([2]; 2 mg kg^−1 per day, 12 weeks, baseline 64.8): 67.7 Standard Score
VABS Communication, 12-week assessment mean ([2]; 2 mg kg^−1 per day, 12 weeks, baseline 66.2): 68.3 Standard Score
VABS Motor skills, 12-week assessment mean ([2]; 2 mg kg^−1 per day, 12 weeks, baseline 78.9): 81.7 Standard Score
VABS Adaptive behavior, estimated effect [2, 4]: 0.3 Standard Score
VABS Communication, estimated effect [2, 4]: 0.2 Standard Score
VABS Motor skills, estimated effect [2, 4]: 0.1 Standard Score
VABS Social skills, estimated effect [2, 4]: 0.2 Standard Score
VABS Daily living, estimated effect [2, 4]: 0.5 Standard Score
VABS Daily living, estimated effect ([2]; vs placebo, mixed-model regression, listed as folinic acid): significantly improved
BASC Adaptive skills, 12-week assessment mean ([3]; 2 mg kg^−1 per day, 12 weeks, baseline 24.5, higher = better): 27.8 T-Scores
BASC Internalizing problems, 12-week assessment mean ([3]; 2 mg kg^−1 per day, 12 weeks, baseline 49.3, lower = better): 43.1 T-Scores
BASC Externalizing problems, 12-week assessment mean ([3]; 2 mg kg^−1 per day, 12 weeks, baseline 60.9, lower = better): 57.7 T-Scores
BASC Behavior problems, 12-week assessment mean ([3]; 2 mg kg^−1 per day, 12 weeks, baseline 71.1, lower = better): 65.3 T-Scores
BASC Adaptive skills, estimated effect ([3]; vs placebo, mixed-model regression, higher = better): 0.4 T-Scores
BASC Behavior problems, estimated effect [3, 5]: 0.1 T-Scores
BASC Externalizing problems, estimated effect [3, 5]: −0.1 T-Scores
BASC Internalizing problems, estimated effect [3, 5]: −1.1 T-Scores
BASC Internalizing problems, estimated effect ([3]; vs placebo, mixed-model regression, lower = better, listed as folinic acid): significantly improved
